From patent publication US6126909A, “Process and apparatus for the production of BI-212 and a use thereof” (Arch Development Corporation, priority 1999, dated 2000)
“Also recorded” adds a separate entry of the source.

Experiments:
[1] = Distribution in peritoneal cavity (imaging and necropsy); assay type: in vivo, rabbit; details: rabbits
Procedure: In vivo studies were conducted to determine the distribution of Bi-212 produced using the above-noted process and to compare the Bi-212 distribution to the distribution of Pb-212 ferrous hydroxide in colloidal form. The in vivo studies were conducted using white, female New Zealand rabbits weighing about 4.5 kilograms ([…]) each. Studies were also conducted using rabbits to determine the toxicity levels, e.g., the maximum tolerated dose. Efficacy studies were conducted using 25 gram (gm) female Swiss-Webster mice inoculated with Ehrlich-Lettre Ascites carcinoma cells.
Groups of rabbits were instilled with a varying amounts (correlating to varying activities) of Bi-212 that were prepared in accordance with the before-described process, neutralized to pH values of between 5.0 and 7.4, and had added thereto a quantity of normal saline to make a 200 cc sample. To compare the distribution of Bi-212, Pb-212 ferrous hydroxide was prepared in accordance with known methods. Rotmensch et al., Gynecol. Oncol., 35:297-300 (1989). […]
Of the groups of rabbits instilled with the Bi-212 solution, a rabbit was imaged and necropsied at each of one-half hour, one hour and three hours after instillation. The percent injected activity (%IA) in each organ was measured to determine the distribution of the Bi-212(Table 6). […] The percent activity remaining in the peritoneal fluid was measured.

V-79 cells = experiment: In vitro irradiation survival (clonogenic), monolayer; assay type: cell-based, Chinese hamster; details: V-79 monolayer
Procedure: In vitro studies were carried out using three well known cell lines, the cells from which were exposed to radiation from: (1) an X-ray source; (2) P-32 chromic phosphate; and (3) Bi-212 chloride. The three cell lines that were used are V-79, which is a Chinese hamster lung fibroblast, Ehrlich-Lettre Ascites carcinoma (ATCC CCL 77), which is an ascites producing -tumor, and NIH:OVCAR-3 (ATCC HTB 161), which is a human ovarian adenocarcinoma. These well known cell lines are predictive of what happens in vivo. The cells were grown as monolayers and into spheroid formations and subsequently irradiated, as described herein.
The V-79 cells were maintained under exponential growth conditions in minimal essential medium (MEM) supplemented with 10 percent fetal bovine serum. The Ehrlich-Lettre Ascites carcinoma cells were maintained in 90 percent NCTC 109 supplemented with 10 percent fetal bovine serum. The NIH:OVCAR-3 cells were maintained in RPMI 1640 and 10 percent fetal bovine serum.
Cells from each of the cell lines were irradiated by subjecting the cells to X-ray radiation, P-32, and Bi-212. The X-ray source that was used is a General Electric 250 kvp Maxitron, 26 […] (mA) (HVL 1.5 mm Cu) operated at a dose rate of 1.11 Greys per minute (Gy/min). The cells, in both monolayer and spheroid form were exposed at room temperature and then immediately plated for survival.
Cells in both monolayer and spheroid were exposed to P-32 chromic phosphate. The radiation dose to each sample was calculated as: […]
After exposure, the cells were washed in phosphate-buffered saline (PBS) and immediately plated for survival.
The cell lines were also irradiated using Bi-212. Bismuth-212 was eluted from a generator as described in the aforementioned patent to Atcher et al., which was a cation-exchange column supporting Ra-224, with 1 ml of 0.15 N HI, and the generator was purged with 2 ml of distilled deionized water. […] The filter was purged with 1 ml of distilled deionized water, and the radioactivity was assayed using a calibrated 3×3-in. […]
Cells were exposed over a period of four hours. The dose (D) per microCurie was calculated and corrected for decay as follows: [formula] where V=volume in milliliters, and […]
Following plating, survival measurements were taken for each of the irradiated cell samples. […] The plates were then stained with crystal violet and colonies greater than 50 cells were scored. The surviving fraction was then determined.
Intrinsic radiosensitivity (Do) was calculated from the survival curves. […] Relative biological effectiveness (RBE) was determined as the ratio of the absorbed dose of X-ray to that of alpha radiation to produce the same degree of biological effect.

[2] = Retention of chelated and non-chelated Bi-212 in peritoneal fluid; assay type: in vivo, rabbit; details: rabbits, 3 hours after instillation
Procedure: Groups of rabbits were instilled with a varying amounts (correlating to varying activities) of Bi-212 that were prepared in accordance with the before-described process, neutralized to pH values of between 5.0 and 7.4, and had added thereto a quantity of normal saline to make a 200 cc sample. To compare the distribution of Bi-212, Pb-212 ferrous hydroxide was prepared in accordance with known methods. Rotmensch et al., Gynecol. Oncol., 35:297-300 (1989). Groups of rabbits were also instilled with the Pb-212 ferrous hydroxide preparation.
Of the groups of rabbits instilled with the Bi-212 solution, a rabbit was imaged and necropsied at each of one-half hour, one hour and three hours after instillation. The percent injected activity (%IA) in each organ was measured to determine the distribution of the Bi-212(Table 6). To determine whether chelating to DTPA improved the retention of Bi-212 in the peritoneal fluid, a group of rabbits was instilled with Bi-212 DTPA, and was imaged and necropsied at three hours following instillation. The percent activity remaining in the peritoneal fluid was measured.

Structure (SMILES): [212Bi] [Bi-212, bismuth-212]
- Distribution in peritoneal cavity/fluid ([1]; intraperitoneal instillation): even distribution within the peritoneal fluid; also recorded: relatively even
- Clumping / localized activity in peritoneal cavity ([1]; imaging up to 3 hours or necropsy): no clumping; i.e., no localized activity in the peritoneal cavity up to 3 hours after instillation
- D0 (intrinsic radiosensitivity) (V-79 cells; dose increment reducing survival to 37 percent): 0.77 Gy
- Relative biological effectiveness (RBE) (V-79 cells; relative to X-ray): 3.02
- % activity in blood volume [2]: 4.5%
- % activity in peritoneal fluid [2]: 80%
- % activity in urine [2]: 6.0%
